Legend:
db/db and ob/ob mice = db/db and ob/ob mice following treatment; cited from earlier work
hepatocytes = details: cited from earlier work; for glucose output: glucagon stimulated
conscious dogs = details: following a glucagon challenge; cited from earlier work
[1] = biological target: T1, Human recombinant liver glycogen phosphorylase a (hrl GPa) (Homo sapiens, UniProt P06737); test: Glycogen phosphorylase a inhibition, glycogen degradation, multienzyme coupled assay (NADH fluorescence); assay type: biochemical; details: hrl GPa 20 nM, 6 hours at 30° C.
T1 sequence (P06737 1-847): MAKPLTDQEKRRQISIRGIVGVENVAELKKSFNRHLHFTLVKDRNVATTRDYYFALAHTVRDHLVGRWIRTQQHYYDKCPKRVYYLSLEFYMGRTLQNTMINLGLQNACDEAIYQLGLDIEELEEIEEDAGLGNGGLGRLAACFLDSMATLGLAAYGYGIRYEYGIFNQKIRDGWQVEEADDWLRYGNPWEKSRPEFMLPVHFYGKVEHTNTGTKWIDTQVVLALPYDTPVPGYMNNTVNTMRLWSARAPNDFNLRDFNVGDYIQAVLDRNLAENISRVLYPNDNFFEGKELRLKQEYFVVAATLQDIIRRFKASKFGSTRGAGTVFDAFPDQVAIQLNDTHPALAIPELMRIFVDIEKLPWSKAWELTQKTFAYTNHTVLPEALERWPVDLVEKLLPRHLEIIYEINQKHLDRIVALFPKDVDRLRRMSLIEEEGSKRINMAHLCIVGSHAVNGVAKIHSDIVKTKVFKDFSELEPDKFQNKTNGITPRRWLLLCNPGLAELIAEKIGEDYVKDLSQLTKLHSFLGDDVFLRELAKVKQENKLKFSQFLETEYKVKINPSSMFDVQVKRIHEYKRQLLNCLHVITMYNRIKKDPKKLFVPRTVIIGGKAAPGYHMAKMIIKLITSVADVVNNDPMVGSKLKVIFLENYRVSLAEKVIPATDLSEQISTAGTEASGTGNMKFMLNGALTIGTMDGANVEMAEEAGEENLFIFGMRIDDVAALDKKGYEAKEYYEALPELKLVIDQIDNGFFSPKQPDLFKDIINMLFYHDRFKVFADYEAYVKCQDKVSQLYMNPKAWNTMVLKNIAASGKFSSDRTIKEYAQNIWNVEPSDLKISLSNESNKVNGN
Protocol: The activity of the compounds is alternatively determined by measuring the inhibitory effect of the compounds on glycogen degradation, the production of glucose-1-phosphate from glycogen is monitored by the multienzyme coupled assay, as described in EP 0 846 464 A2, general method of Pesce et al (Pesce, M A, Bodourian, S H, Harris, R C, and Nicholson, J F (1977) Clinical Chemistry 23, […]). The reactions were in 384 well microplate format in a volume of 50 μl. The change in fluorescence due to the conversion of the co-factor NAD to NADH is measured at 340 nm excitation, 465 nm emission in a Tecan Ultra Multifunctional Microplate Reader. The reaction is in 50 OmM HEPES, 3.5 mM KH2PO4, 2.5 mM MgCl2, 2.5 mM ethylene glycol-bis(b-aminoethyl ether) N,N,N′,N′-tetraacetic acid, 100 mM KCl, 8 mM D-(+)-glucose pH7.2, containing 0.5 mM dithiothreitol, the assay buffer solution. Human recombinant liver glycogen phosphorylase a (hrl GPa) 20 nM is pre-incubated in assay buffer solution with 6.25 mM NAD, 1.25 mg type III glycogen at 1.25 mg ml^−1 the reagent buffer, for 30 minutes. […] The non-inhibited activity of GPa is measured in the presence of 10 μl 5% DMSO in assay buffer solution and maximum inhibition measured in the presence of 5 mgs ml^−1 N-ethylmaleimide. […] Relative Fluoresence Units (RFUs) are measured at 340 nm excitation, 465 nm emission. […]

IC50 [1] [µM]	Compound	plasma glucose concentration (db/db and ob/ob mice)	glucagon stimulated glycogenolysis (hepatocytes)	glucose output (hepatocytes)	arterial plasma glucose (conscious dogs)	hepatic glucose output (conscious dogs)
–	O=C(N[C@@H](Cc1ccc(F)cc1)C(=O)N1CCC(O)CC1)c1cc2cc(Cl)ccc2[nH]1 [CP320626]	reduced, in a dose related manner	reduce	reduce	–	–
–	CCN1C(C)=C(C(=O)OC(C)C)C(c2ccccc2Cl)C2=C1COC2=O (stereo not drawn) [Bay R 3401]	–	–	–	reduced significantly	reduced significantly
2.4	COC(=O)c1ncoc1[C@H](Cc1ccccc1)NC(=O)c1cc2cc(Cl)ccc2[nH]1 [Example 1, Methyl (S)-5-{1-[(5-chloro-1H-indol-2-ylcarbonyl)amino]-2-phenylethyl}oxazole-4-carboxylate]	–	–	–	–	–
–	CN(C)C(=O)[C@H](O)[C@H](Cc1ccccc1)NC(=O)c1cc2cc(Cl)ccc2[nH]1 [CP91149]	reduced, in a dose related manner	reduce	reduce	–	–
